Here are results for four molecules from patent US8048908B2, “11β-hydroxysteroid dehydrogenase type 1 active compounds” (High Point Pharmaceuticals, LLC, priority 2006, dated 2011).

For one assay, the target named is T1, h-11βHSD1 (Homo sapiens, UniProt P28845).
T1 construct: made in house
The assay can be described thus: 11βHSD1 Enzyme Assay (scintillation proximity assay). The class given is biochemical. As to conditions: yeast extract expressing h-11βHSD1, 120 nM 3H-cortisone, 4 mM β-NADPH, 60 min at 30° C. As for the experimental part:
^3H-cortisone and anti-rabbit Ig coated scintillation proximity assay (SPA) beads were purchased from Amersham Pharmacia Biotech, —NADPH was from Sigma and rabbit anti-cortisol antibodies were from Fitzgerald. An extract of yeast transformed with h-11βHSD1 (Hult et al., FEBS Lett., 441, 25 (1998)) was used as the source of enzyme. The test compounds were dissolved in DMSO (10 mM). All dilutions were performed in a buffer containing 50 mM TRIS-HCl (Sigma Chemical Co), 4 mM EDTA (Sigma Chemical Co), 0.1% BSA (Sigma Chemical Co), 0.01% Tween-20 (Sigma Chemical Co) and 0.005% bacitracin (Novo Nordisk A/S), pH=7.4. Optiplate 96 wells plates were supplied by Packard. The amount of ^3H-cortisol bound to the SPA beads was measured on Top-Count NXT, Packard.
h-11βHSD1, 120 nM ^3H-cortisone, 4 mM β-NADPH, antibody (1:200), serial dilutions of test compound and SPA particles (2 mg/well) were added to the wells. The reaction was initiated by mixing the different components and was allowed to proceed under shaking for 60 min at 30° C. The reaction was stopped be the addition of 10 fold excess of a stopping buffer containing 500 μM carbenoxolone and 1 μM cortisone. Data was analysed using GraphPad Prism software.
(In a scintillation proximity assay essentially only radioactivity close to the scintillant gives light.)

Another assay addresses T2, 11βHSD1 (Homo sapiens, UniProt P28845).
T2 construct: host or cells: human subjects (in vivo)
As to conditions: lean healthy volunteers and people with type 2 diabetes; cited from earlier work.

Molecules are shown by their SMILES. pIC50: −log10 of the molar value.

T1 sequence (P28845 whole entry): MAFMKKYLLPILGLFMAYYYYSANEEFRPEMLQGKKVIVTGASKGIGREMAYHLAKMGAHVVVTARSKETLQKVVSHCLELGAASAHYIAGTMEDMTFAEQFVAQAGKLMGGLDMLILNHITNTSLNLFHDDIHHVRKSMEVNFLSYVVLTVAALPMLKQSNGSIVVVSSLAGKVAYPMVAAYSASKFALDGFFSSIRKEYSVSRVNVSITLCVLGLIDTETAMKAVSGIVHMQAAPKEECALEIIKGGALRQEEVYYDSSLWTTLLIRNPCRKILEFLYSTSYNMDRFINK
T2 sequence (P28845 whole entry): as above

For `CC1(C)CC2CC(C)(CN2C(=O)c2ccc(N3CCC(C(=O)NC4CCC(O)CC4)C3)cc2)C1` (stereo not shown) [Example 1-7, 1-[4-(1,3,3-Trimethyl-6-aza-bicyclo[3.2.1]octane-6-carbonyl)-phenyl]-pyrrolidine-3-carboxylic acid (4-hydroxy-cyclohexyl)-amide], on h-11βHSD1, the pIC50 (as a rule, −log10 of the IC50, conventionally taken in molar units) is 6.90. Consider `CC1(C)[C@@H](OC(=O)CCC(=O)O)CC[C@]2(C)[C@H]3C(=O)C=C4[C@@H]5C[C@@](C)(C(=O)O)CC[C@]5(C)CC[C@@]4(C)[C@]3(C)CC[C@@H]12` [carbenoxolone], for which, at 11βHSD1, the insulin sensitivity entry is on record as “improves insulin sensitivity”. Consider `CN(C1CCN(c2ccc(C(=O)N3CC4CCC(CC4)C3)cc2)C1)S(=O)(=O)Cc1ccccc1` (stereo not shown) [Example 1-33, N-{1-[4-(3-Aza-bicyclo[3.2.2]-nonane-3-carbonyl)-phenyl]-pyrrolidin-3-yl}-N-methyl-phenyl-methanesulfonamide], for which the pIC50 at h-11βHSD1 was 7.37. Still for that read-out and setting: next, `CN(C(=O)C1CC1)C1CCN(c2ccc(C(=O)N3CC4CCC(CC4)C3)cc2)C1` (stereo not shown) [Example 1-31, Cyclopropanecarboxylic acid {1-[4-(3-aza-bicyclo[3.2.2]-nonane-3-carbonyl)-phenyl]-pyrrolidin-3-yl}-methyl-amide]: 6.89.
